# Measurements as given in PMC3238500 (Archives of biochemistry and biophysics, 2011).
# Read-outs that look alike come from different tables or passages of the source.
# Experiments:
# [1] = target: T1, pyruvate carboxylase (RePC) (Rhizobium etli, UniProt Q2K340); format: binding
# [2] = target: T1, pyruvate carboxylase (RePC); format: biochemical
# [3] = target: T1, pyruvate carboxylase (RePC); format: biochemical; remark: listed apart in the source
# [4] = target: T1, pyruvate carboxylase (RePC); assay: Stopped-flow fluorescence kinetics of MgTNP-ATP binding to pyruvate carboxylase; details: for kobs1 (fast phase of binding) / kobs2 (intermediate phase of binding): 0.5 μM enzyme, double exponential fit; for k-2 / K2 (equilibrium constant between two conformational states, k-2/k2) / k2: intermediate phase
structure (smiles),measurement,setting,value
Nc1ncnc2c1ncn2[C@@H]1O[C@H](COP(=O)(O)OP(=O)([O-])OP(=O)([O-])O)[C@@H](O)[C@H]1O.[Mg+2] [MgATP],further decrease in fluorescence,[1]; addition of 2.5 mM MgATP to 5 μM MgTNP-ATP + 10 μM enzyme + 0.25 mM acetyl CoA,approximately 13%
same,Hill coefficient,"[2]; activation by MgATP, absence of acetyl CoA, Fig. 6b",3.1 ± 0.5
same,increase in activity,"[2]; between 2 mM and saturating MgATP, absence of acetyl CoA",approximately 16 fold
same,apparent Ka (activation of ATP cleavage),"[2]; super-catalytic MgATP, absence of acetyl CoA, fit to equation (iv), Fig. 6b",5.0 ± 0.4 mM
same,Km,"[3]; MgATP varied, absence of acetyl CoA, fit to equation (iii), Fig. 6a",150 ± 20 µM
same,Ki,"[3]; read-out: Ki (substrate inhibition), MgATP varied, absence of acetyl CoA, fit to equation (iii), Fig. 6a",8.9 ± 1.2 mM
same,effect on kinetics of MgTNP-ATP binding,"[4]; 1 mM MgATP in both syringes, 10 μM MgTNP-ATP",essentially identical
CC(=O)SCCNC(=O)CCNC(=O)[C@H](O)C(C)(C)COP(=O)(O)OP(=O)(O)OC[C@H]1O[C@@H](n2cnc3c(N)ncnc32)[C@H](O)[C@@H]1OP(=O)(O)O [acetyl CoA],decrease in maximum fluorescence intensity,[1]; addition of 0.25 mM acetyl CoA to 5 μM MgTNP-ATP + 10 μM enzyme,approximately 32%
same,increase in the turnover number for ATP cleavage,[2]; induced by acetyl CoA when MgATP is present up to 1 mM (data not shown),7 fold
same,n (Hill coefficient),"[3]; activation by acetyl CoA, fit to equation (i), Fig. 4a",2.6 ± 0.2
same,Ka (activation constant),"[3]; activation by acetyl CoA, fit to equation (i), Fig. 4a, 30°C, pH 7.8",6.9 ± 0.2 µM
same,kcat2,"[3]; saturating acetyl CoA, fit to equation (i), Fig. 4a",20.2 ± 0.1 s⁻¹
"Nc1ncnc2c1ncn2[C@@H]1O[C@H](COP(=O)(O)OP(=O)(O)OP(=O)(O)O)[C@H]2OC3(O[C@H]21)C([N+](=O)[O-])=CC(=[N+]([O-])[O-])C=C3[N+](=O)[O-] (stereo partly drawn) [MgTNP-ATP, 2′,3′-O-(2,4,6-trinitrophenyl) adenosine 5′-triphosphate]",kcat2 for the activation by MgTNP-ATP,"[3]; absence of acetyl CoA, fit to equation (i), Fig. 4c",1.9 ± 0.1 s⁻¹
same,nt (Hill coefficient),"[3]; activation by MgTNP-ATP in the absence of acetyl CoA, fit to equation (i), Fig. 4c",2.3 ± 0.6
same,nt (Hill coefficient),"[3]; activation by MgTNP-ATP, global fit to equation (ii), Fig. 4b",2.5 ± 0.4
same,substrate in the overall pyruvate carboxylation reaction,[3]; concentrations up to 0.25 mM,not found to be a substrate
same,kcat2 for the reaction activated by MgTNP-ATP,"[3]; global fit to equation (ii), Fig. 4b",2.0 ± 0.5 s⁻¹
same,half time of the slowest phase of the binding kinetics,[4],about 20 sec
same,kobs1 (fast phase of binding),"[4]; 10 μM MgTNP-ATP, Fig. 8a",234 ± 26 s⁻¹
same,kobs2 (intermediate phase of binding),"[4]; 10 μM MgTNP-ATP, Fig. 8a",11 ± 1 s⁻¹
same,k (slow phase of binding),"[4]; 20 μM MgTNP-ATP, single exponential fit, Fig. 8c",0.035 ± 0.001 s⁻¹
same,kobs1 (fast phase of binding),"[4]; 35 μM MgTNP-ATP, Fig. 8b",475 ± 90 s⁻¹
same,kobs2 (intermediate phase of binding),"[4]; 35 μM MgTNP-ATP, Fig. 8b",19 ± 2 s⁻¹
same,"observed first order rate constant, slow phase of binding",[4]; average value across all concentrations of MgTNP-ATP,0.035 ± 0.008 s⁻¹
same,k1,"[4]; fast phase, fit to eq (vi)",0.20 ± 0.01 μM^-2s^-1
same,k2 (intermediate phase) as percentage of k1 (fast phase),[4]; fit to equation (ix),5.9%
same,k-2 (intermediate phase) as percentage of k-1 (fast phase),[4]; fit to equation (ix),6.6%
same,k-2,[4]; fit to eq (ix),10.6 ± 0.2 s⁻¹
same,"K2 (equilibrium constant between two conformational states, k-2/k2)",[4]; fit to eq (vii),0.02 ± 0.02
same,k2,[4]; fit to eq (vii),31 ± 1 s⁻¹
same,k-2,[4]; fit to eq (vii),0.6 ± 0.6 s⁻¹
same,"K2 (equilibrium constant between two conformational states, k-2/k2)",[4]; fit to eq (viii),0.47 ± 0.05
same,k2,[4]; fit to eq (viii),22.6 ± 0.7 s⁻¹
same,k-2,[4]; fit to eq (viii),10.5 ± 0.2 s⁻¹
same,k-2,[4]; fit to eq (x),12.6 ± 0.2 s⁻¹
same,k2,[4]; fit to eq (xi),0.013 ± 0.001μM^-2s^-1
same,k-2,[4]; fit to eq (xi),12.7 ± 0.2 s⁻¹
same,k2,[4]; fit to eq (xii),0.016 ± 0.001 μM^-2 s^-1
same,k-2,[4]; fit to eq (xii),13.5 ± 0.3 s⁻¹
